The source of these data is patent US4929602A, “Method of inhibiting platelet dependent arterial thrombosis” (Scripps Clinic and Research Foundation, priority 1988, dated 1990).

A short description of data set [1]: Plasma levels of PPACK (antithrombin activity) in carotid endarterectomy study. It counts as in vivo, baboon. The following applies: iv.
In another data set the test system is Hemostatic Function. On the set-up: species or system baboon. The following applies: in vivo. Here is the method:
After continuous infusion of a | given dose for 15 minutes (min.), the template bleeding time measurement | was begun and blood was drawn for thrombin time determinations. Escalatio | to the next dose was undertaken only after the bleeding time measurement | had been completed. The results are expressed as means ± one standard | deviation.

Data set [2] can be described thus: Blood and plasma determinations during dialyzer exposure (APTT, FPA, fibrinogen, cell counts, bleeding time, PF4, βTG, C3a). It counts as in vivo, baboon. Here is the method: PPACK or standard heparin (from porcine intestinal mucosal, Invenex Laboratories, Chagrin Falls, Ohio) was infused into the arterial limb of the vascular shunt immediately proximal to the dialyzer.
Blood cell counts (platelets, white blood cells, and red blood cells) were performed on disodium EDTA anticoagulated whole blood using a J. T. Baker whole blood analyzer Model 810 (Allentown, Pa.). Hanson et al., J. Clin. Invest. 75:1591-99 (1985); and Hanson et al., Arteriosclerosis, 5:595-603 (1985). Standard template bleeding times, were performed on the shave volar surface of the forearm in a manner as described in Harker et al., New. Eng. J. Med., 287:155-59 (1972) and Malpass et al., Blood, 57:736-40 (1981). Bleeding times were done in duplicate and averaged. Commercially available radioimmunometric assays were carried out to measure plasma levels of platelet factor 4 (PF4) (Abbott Laboratories, North Chicago, Ill.), β-thromboglobulin (βTG) (Amersham Corporation, Arlington Heights, Ill.), fibrinopeptide A (FPA) (MICRO USA Inc., New York, N.Y.) and activated complement C3 antigen (C3a) (Amersham Corp.). Blood samples for these plasma assays were collected, processed and determined as described in the procedures of Example 1 and in Malpass et al., ibid. and Hanson et al., Arterosclerosis, 5:595-603 (1985). […] (APTT) were performed using a standard method (Activated PTT reagent, Ortho Diagnostics, Raritain, N.J.). A fibrometer (Fibrosystem, Division of Becton and Dickinson and Co., Cockeysville, […].) was used for endpoint clot detection as described in Biggs, R., Human Blood Coagulation, Haemostasis and Thrombosis, Oxford, Blackwell Scientific, pages 657-750 (1976). Fibrinogen was determined by a total clottable protein method described by Jacobsson K., Scand. J. Clin. Lab. Invest., 7(Suppl. 14):9-54 (1955).

The nature of data set [3]: Plasma activity levels of heparin (anti-Xa) and PPACK (antithrombin) during dialyzer study. In kind it is in vivo, baboon. The following applies: for level at 0.5 h / level at 1 h: plasma, 100 nmol/kg per min, Plasma PPACK; for level at 0.5 h: 30 min; for level at 1 h: 60 min. Here is the method: Samples were centrifuged (2000×g, for 5 min) immediately after collection and the recovered plasma was frozen until assay. […] In some studies PPACK levels were determined at three sites: (i) systemic (ii) immediately proximal to the dialyzer but distal to the site of the PPACK infusion, and (iii) immediately distal to the dialyzer. Levels of heparin activity were determined by measuring the potentiating effect of heparin of plasma anti-Xa activity using a synthetic chromogenic substrate (Stachrom Heparin, Stago, France). Teien et al., Thrombo Research, 10:399-410 (1977).

The conditions of data set [4]: Collen et al., cited from earlier work.
The nature of data set [5]: PPACK concentration in the plasma during infusion (graft study). It counts as in vivo, baboon. To be noted: intravenous infusion at 100 nmol/kg/min (about 15 minutes). From the text:
Methods for determining the concentration of a Formula (1) peptide in the plasma are well known in the art, a preferred method being that described by Collen et al., J. Lab. Clin. Med., 99:76-83 (1982), whose disclosures are incorporated herein by reference.

The nature of data set [6]: Template bleeding time and platelet count in carotid endarterectomy study (Example 2B). In kind it is in vivo, baboon. The following applies: treated animals, day 3. Here is the method: […] The mean platelet count was 318±70×10^3 /μl in the control group and 296±53×10^3 /μl in the treated group.
Bleeding time measurements were performed in duplicate on the shaved volar surface of the forearm, using the standard template method as previously described for studies in baboons. Harker et al., Blood, 58:824-834 (1980).

Data set [7] concerns primate model of vascular graft thrombosis. The following applies: aspirin 32.5 mg/kg/day orally 2 hours prior to graft placement; previous studies; cited from earlier work.

`N=C(N)NCCC[C@H](NC(=O)[C@@H]1CCCN1C(=O)[C@H](N)Cc1ccccc1)C(=O)CCl` [PPACK, D-phenylalanyl-L-propyl-L-arginyl-chloromethyl ketone]: the level at 1.5 h in data set [1] (100 nmol/kg/min, 90 min after infusion) stood at 1120 ± 270 ng/mL. For the same molecule, the level at 0.5 h stood at 3720 ± 610 ng/mL in data set [1] (30 min after infusion, 100 nmol/kg/min for about 1 hour); 3900 ± 500 ng/mL in data set [3] (Postdialyzer); 3050 ± 550 ng/mL in data set [3] (Predialyzer); 1400 ± 400 ng/mL in data set [3] (Systemic). In addition, the “effect on heart rate or blood pressure” value in the data set on Hemostatic Function was “No effect”. The platelet count in the data set with Hemostatic Function is given as 269 ± 54 × 10^9 /L; in data set [2] (during dialyzer exposure), 401 ± 17 × 10^3 /μL. The molecule further registered a C3a peak level in data set [2] (during dialyzer use) of 1989 ± 360 ng/mL. For the same molecule, the “white blood cell count, early fall” value in data set [2] (during dialyzer use) is given as 5,900±810 cells/ul. In addition, the “PPACK systemic plasma level” value in data set [3] (100 nmol/kg per min infused proximal to the dialyzer) stood at 1.5 ± 0.06 µg/mL. The values for the level at 1 h in data set [3] (Postdialyzer), in data set [3] (Predialyzer) and in data set [3] (Systemic) were 4100 ± 1200 ng/mL, 3650 ± 650 ng/mL and 1600 ± 500 ng/mL, respectively. In addition, in data set [4], the “T50 removal rate from the circulation” value is “less than 3 min”. For the same molecule, in data set [4] (rabbits), the “half-life of PPACK's ability to inhibit fibrin formation” value is on record as “about 2.9 minutes”. Also, the “PPACK concentration in the plasma” value in data set [5] was in the range of 1 to 2 µg/mL. Also, the Platelet counts in data set [6] is 296±53 ×10^3 /μl.
`CC(=O)Oc1ccccc1C(=O)O` [aspirin]: in data set [7], the “effect on vascular graft 111In-platelet deposition” value is “neither aspirin (32.5 mg/kg/day given orally 2 hours prior to graft placement) not aspirin combined with heparin (100 units/kg) affected”.
